Measurements as given in article PMC8148468, “Shikimic acid protects skin cells from UV-induced senescence through activation of the NAD+-dependent deacetylase SIRT1” (Aging (Albany NY), 2021).
Read-outs that look alike come from different tables or passages of the source.

Key:
[1] = tested on: H4K16ac (the target of SIRT1 and SIRT2); assay: Sirtuin activity assay in HDF: H4K16ac levels (Western blot); type: cell-based, human; conditions: HDF treated 24h; for SIRT1,2 H4K16ac: Figure 1B; on SIRT1,2 H4K16ac: key: ↑: increase; ↓: decrease; hyphens that indicate no effect (-)
Experimental: (§1) Figure 1 (A) Schematic representation of the compound testing for sirtuin activity evaluation in HDF. Cells were treated with or without the compounds for 24h and harvested for analysis. […] (C) Western Blot analysis and (D) quantification of H4K16ac and H3K9ac levels in cells treated with Resveratrol or Shikimic acid at the indicated concentrations. H4K16 and H3K9 levels were normalized to H4 and H3 levels respectively. Student T-test, *p<0.05, **p<0.01, ***p<0.001.
(§2) HDFs were plated in 100x20 mm2 cell culture plates and after 24h, fresh cell culture medium containing the compounds was added. After 24h, cells were detached with cell scrapers, harvested, and processed for qPCR or western blot.
(§3) Protein levels were analyzed as previously described. Cells were directly lysed in 1x Laemmli Buffer (Bio-Rad, USA), incubated at 95° C and centrifuged. Supernatant was subjected to SDS-polyacrylamide gel electrophoresis, and successive steps were performed as described. The list of antibodies used is included in Supplementary Table 2.

[2] = tested on: UVB-irradiated human dermal fibroblasts (HDFs); assay: UVB-induced senescence assay: SA-β-Gal staining; type: cell-based; conditions: for β-Gal: HDF, 2 cycles of UVB, compound day 1 to 7, Figure 2B; on β-Gal: key: ↑: increase; ↓: decrease; hyphens that indicate no effect (-)
Experimental: (§4) In the second approach, we established a method for inducing senescence in these cells with 2 cycles of UVB irradiation 72h apart (Figure 2A). The use of UVA to induce senescence was discarded due to its considerably longer time requirement, being unsuitable to screen 30 compounds within a reasonable period. Cells were treated with these compounds throughout the duration of the assay and cellular senescence was monitored with two markers: accumulation of SA-β-galactosidase (SA-β-Gal) activity, and the decrease in expression of HAS2 (hyaluronic acid synthase 2), a previously reported marker of skin senescence.
(§5) Figure 2 (A) Schematic representation of the protocol for senescence induction using UVB irradiation. Cells were treated -/+ the compounds from day 1 to 7 after seeding, irradiated with UVB on days 2 and 5 and harvested for analysis on day 7. […] (C) Phase-contrast (left column) and bright field (right column) microscope images of SA-β-Gal staining showing non-irradiated cells, UVB-irradiated cells non-treated and treated with Gallic acid or Shikimic acid at the indicated concentrations. (D) Percentage of SA-β-Gal positive cells and (E) Relative HAS2 mRNA levels in non-irradiated cells, UVB-irradiated cells and UVB-irradiated cells treated with Gallic acid or Shikimic acid at the indicated concentrations. Student T-test, *p<0.05, **p<0.01, ***p<0.001.
(§6) The protocol for senescence induction using UVB irradiation is described in the Supplementary Methods. SA-β-Gal staining, WST-1, sulforhodamine B (SRB) and trypan blue assays were performed as previously described. For the siRNA experiments, the protocol for senescence induction using UVB irradiation was the same as in the Supplementary Methods. Specific siRNA (Horizon discovery, UK) for SIRT1, SIRT2, SIRT6, BiP or scramble siRNA were incubated for 6 hours before each irradiation step.
(§7) Senescence induction by UVB irradiation For the non-irradiation control conditions, HDF were […]
(§8) After 24h, culture medium was removed and well plates. After 24h, culture medium was removed replaced by fresh cell culture medium containing the and replaced with fresh cell culture medium containing compounds at different concentrations. After 24h, the compounds at different concentrations. […]
(§9) cell culture medium was removed, and cells were cells/plate in fresh cell culture medium containing the irradiated at 25 mJ/cm2 of UVB light (312 nm) in a Bio- compound in 6-well plates. After 3 days, cells were […]
(§10) amount of PBS. PBS was then removed and fresh cell fresh cell culture medium containing the compound in culture medium with the compound was added to each 6-well plates. After 2 days, cells were processed well. After 3 days, cells were irradiated again under the according to the qPCR, β-Gal staining, apoptosis, cell same conditions. After 2 days, cells were processed cycle or immunofluorescence protocols. according to the qPCR, β-Gal staining, apoptosis, cell cycle or immunofluorescence protocols.

[3] = tested on: HAS2 (hyaluronic acid synthase 2); assay: UVB-induced senescence assay: HAS2 gene expression (qPCR); type: cell-based, human; conditions: HDF, 2 cycles of UVB, compound day 1 to 7, Figure 2B; further: key: ↑: increase; ↓: decrease; hyphens that indicate no effect (-)
Experimental: as §4, §5
RNA was extracted from cell pellets using the Total RNA Purification Kit (Norgen, Canada), according to the manufacturer’s protocol. Extracted RNA was quantified using a NanoDrop® ND-1000 UV-Vis Spectrophotometer (Thermo Fisher Scientific, USA) and 300 ng of RNA were retrotranscribed to cDNA using the PrimeScriptTM RT reagent kit (Takara Bio Inc., Japan). cDNA was diluted 1/10 in ultrapure water and qPCR mix was prepared by adding cDNA (12 ng), SYBR green supermix (Bio Rad, USA), forward and reverse primers (0.2μM). The primers and their respective sequences are listed in Supplementary Table 1. qPCR protocol included one step at 95° C for 30 s, 40 cycles at 95° C for 10s, and 60° C for 1min. The results were analyzed with Bio-Rad CFX Manager software. BACT was used as a housekeeping gene to normalize gene expression.
as §7, §8, §9, §10

[4] = tested on: primary human dermal fibroblasts (HDFs)
Excerpt: In our efforts to identify novel factors that could prevent skin cell senescence, we developed a screening process to identify new modulators of the protective role of sirtuins in UV-induced senescence. For this purpose, we established a culture of primary human dermal fibroblasts (HDFs). […] Our first step in the screening was to establish the optimal concentrations of these compounds in the case of HDFs. […] Once established, we took these parameters into account to decide the specific working range of concentrations for each compound.
Human dermal fibroblasts (HDFs) (Promocell, Germany) from 40-year old Caucasian women were used as the in vitro model for compound viability and efficacy screening. Cells were cultured in Dulbecco's modified eagle medium (DMEM) low glucose (Biowest, France) supplemented with 10% fetal bovine serum (FBS) (Capricorn Scientific, Germany) and 10 U/mL penicillin/streptomycin (Biowest, France) in a humidified incubator at 37° C and 5% CO2. For cell passage, cells at 80% confluence were trypsinized and plated at 60% confluence. Cells between passage 13 and 18 were used for the assays. For the SIRT1 in vitro assay, HEK293 cells (ATCC, USA), used to transfect and immunoprecipitate SIRT1 protein, were grown in DMEM high glucose (Thermo Fisher Scientific, USA), supplemented with 10% FBS in a humidified incubator at 37° C and 5% CO2. The following experiments were all performed in triplicate.
as §6

[5] = tested on: H3K9ac (the target of SIRT1, SIRT2 and SIRT6); assay: Sirtuin activity assay in HDF: H3K9ac levels (Western blot); type: cell-based, human; conditions: HDF treated 24h; for SIRT1,2,6 H3K9ac: Figure 1B; on SIRT1,2,6 H3K9ac: key: ↑: increase; ↓: decrease; hyphens that indicate no effect (-)
Experimental: as §1, §2, §3

[6] = HDFs, WST-1 cell viability test, maximum non-cytotoxic dose
[7] = HDFs, WST-1 cell viability test

Row | SMILES | SIRT1,2 H4K16ac [1] | β-Gal [2] | HAS2 expression [3] | Max. non-cyt. doses [4, 6] [mM] | SIRT1,2,6 H3K9ac [5] | effect on H4K16ac levels [1] | prevention of UV-induced cellular senescence ([2]; UVB-irradiated HDF, SA-β-Gal and HAS2 markers) | LD50 [4, 7] [mM] | effect on H3K9ac levels [5] | LD50 ([4]; female, human) [mM] | Max. non-cyt. doses ([4]; female, human) [mM]
1 | O=C(O)c1ccccc1O [Salicylic acid, reference compound] | - | - | - | 1 | - |  |  |  |  |  | 
2 | Oc1ccc2c(c1)OCO2 [Sesamol] |  |  | - | 0.5 |  | induced a similar effect on both targets | did not prevent cellular senescence | 4.358 | induced a similar effect on both targets |  | 
3 | COc1cc(C(=O)O)cc(OC)c1O [Syringic acid] | - | - | - |  | - |  |  |  |  | 3.65 | 1
4 | COc1cc(C=O)ccc1O [Vanillin] | - | - | - |  | - |  |  |  |  | 5.912 | 1
5 | C/C(=C\CNc1ncnc2[nH]cnc12)CO [Zeatin] | - | - | - | 1 |  |  |  | 2.462 | reduced the levels of H3K9ac only |  | 
